Reference: US20130065818A1, “Arylamide Compounds And Compositions And Uses Thereof” (POLYMEDIX, priority 2006, published 2013)
Where “and” joins values, the source holds several entries; their conditions need not be identical. Equal entries are not always repeated.

Tests used:
Test in all cases: MIC, 25 ocular isolates, broth microdilution (Example 8)
Type in all cases: cell-based
Haemophilus influenzae = settings: for Minimum MIC / Maximum MIC / Mean MIC: descriptive statistics, n=25; for Maximum MIC / Mean MIC / Median MIC: >64 replaced with 128; for Median MIC: n=25 isolates
Description: (§1) HTM (Haemophilus Test Medium) in tubes was inoculated with 25 ocular isolates of Haemophilus influenzae plus two controls (Staphylococcus aureus and E. coli) and incubated at 37° C. overnight. Additionally, Mueller-Hinton Broth in tubes was inoculated with two controls (Staphylococcus aureus and E. coli) and incubated at 37° C. overnight on a shaker set at 250 rpm.
(§2) On the day of testing, a 640 μg/ml (1280 μg/ml for Serratia marcescens and Pseudomonas aeruginosa) concentration was prepared from a 1% stock solution in 0.01% acetic acid, 0.2% BSA in polypropylene tubes.
(§3) Serial doubling dilutions in 0.01% acetic acid, 0.2% BSA in 96 well polypropylene plates, which are used as reservoirs for the inoculation of the test plates, were carried out to obtain serial dilutions of test agents at 10 times the required test concentrations: 640, 320, 160, 80, 40, 20, 10, 5, 2.5, 1.25, and 0.625 μg/ml (1280, 640, 320, 160, 80, 40, 20, 10, 5, 2.5, and 1.25 μg/ml for Serratia marcescens and Pseudomonas aeruginosa).
(§4) Ten μl of diluted 10×test agents was added to each well of one row of the 96 well polypropylene plates from column 2 to column 12 (column 1 is a control for bacteria alone, with no peptide). Test agent concentrations in columns 2-12 were as follows: 64, 32, 16, 8, 4, 2, 1, 0.5, 0.25, 0.125, and 0.0625 μg/ml (128, 64, 32, 16, 8, 4, 2, 1, 0.5, 0.25, and 0.125 μg/ml for Serratia marcescens and Pseudomonas aeruginosa). The same peptide was in each of the 8 rows. One plate contained dilutions of one test agent and 8 bacterial isolates.
On the day of testing, the overnight bacterial broth cultures of Haemophilus species was diluted in 5 ml of trypticase soy broth to yield turbidity equal to a 0.5 McFarland standard. The final inoculum for MIC testing for Haemophilus species was achieved by placing 0.1 ml of the turbidity adjusted sample to 5 ml of HTM medium.
(§5) Ninety μl of the bacterial suspensions was dispensed in each well from column 1 to column 12. Each bacterial isolate was placed in one row of a 96 well polypropylene plate containing the test agents. The plates were placed on shaker at 15 minutes at room temperature, and then incubated at 37° C. overnight. MICs were determined visually as the lowest concentration of drug that inhibits visible bacterial growth.

[1] = test system: Streptococcus viridans group; settings: 25 isolates; >64 was Replaced with 128
Description: as §1, with “Mueller-Hinton Broth supplemented with 2% lysed horse blood” for “HTM (Haemophilus Test Medium)”, “Streptococcus pneumoniae, Streptococcus viridans group, and Moraxella species (including Moraxella catarrhalis)” for “Haemophilus influenzae”
as §2, §3, §4
(§6) On the day of testing, the overnight bacterial broth cultures of Streptococcus pneumoniae, Streptococcus viridans and Moraxella species (including Moraxella catarrhalis) plus two controls (Staphylococcus aureus and E. coli) were diluted in 5 ml of trypticase soy broth to yield turbidity equal to a 0.5 McFarland standard. The final inoculum for MIC testing for Streptococcus pneumoniae, Streptococcus viridans and Moraxella species (including Moraxella catarrhalis) was achieved by placing 0.1 ml of the turbidity adjusted sample to 5 ml of Mueller-Hinton broth containing 2% lysed horse red blood cells.
as §5

[2] = test system: Moraxella species (including Moraxella catarrhalis); settings: for Minimum MIC / Maximum MIC / Mean MIC: descriptive statistics, n=25; for Maximum MIC / Mean MIC / Median MIC: >64 replaced with 128; for Median MIC: n=25 isolates
Description: as §1, with “Mueller-Hinton Broth supplemented with 2% lysed horse blood” for “HTM (Haemophilus Test Medium)”, “Streptococcus pneumoniae, Streptococcus viridans group, and Moraxella species (including Moraxella catarrhalis)” for “Haemophilus influenzae”
as §2, §3, §4, §6, §5

Streptococcus pneumoniae = settings: 25 isolates; >64 was Replaced with 128
Description: as §1, with “Mueller-Hinton Broth supplemented with 2% lysed horse blood” for “HTM (Haemophilus Test Medium)”, “Streptococcus pneumoniae, Streptococcus viridans group, and Moraxella species (including Moraxella catarrhalis)” for “Haemophilus influenzae”
as §2, §3, §4, §6, §5

[3] = test system: Staphylococcus aureus fluoroquinolone-resistant; settings: 25 isolates
Description: (§7) • Mueller-Hinton Broth in tubes was inoculated with 25 ocular isolates of Staphylococcus aureus fluoroquinolone-susceptible, Staphylococcus aureus fluoroquinolone-resistant, Staphylococcus epidermidis (Coagulase-negative Staphylococcus) fluoroquinolone-susceptible, Staphylococcus epidermidis (Coagulase-negative Staphylococcus) fluoroquinolone-resistant, Pseudomonas aeruginosa and Serratia marcescens, plus two controls (Staphylococcus aureus and E. coli) and incubated at 37° C. overnight on a shaker set at 250 rpm.
as §2, §3, §4
(§8) On the day of testing, the overnight bacterial broth cultures of Staphylococcus aureus fluoroquinolone-susceptible, Staphylococcus aureus fluoroquinolone-resistant, Staphylococcus epidermidis (Coagulase-negative Staphylococcus) fluoroquinolone-susceptible, Staphylococcus epidermidis (Coagulase-negative Staphylococcus) fluoroquinolone-resistant, Serratia marcescens, and Pseudomonas aeruginosa, plus two controls (Staphylococcus aureus and E. coli) were diluted in 5 ml of trypticase soy broth to yield turbidity equal to a 0.5 McFarland standard. The final inoculum for MIC testing for Staphylococcus aureus fluoroquinolone-susceptible, Staphylococcus aureus fluoroquinolone-resistant, Staphylococcus epidermidis (Coagulase-negative Staphylococcus) fluoroquinolone-susceptible, Staphylococcus epidermidis (Coagulase-negative Staphylococcus) fluoroquinolone-resistant, Serratia marcescens, and Pseudomonas aeruginosa was achieved by placing 0.05 ml of the turbidity adjusted sample to 5 ml of Mueller-Hinton broth.
as §5

Serratia marcescens = settings: 25 isolates; >128 was Replaced with 256
Description: as §7, §2, §3, §4, §8, §5

Pseudomonas aeruginosa = settings: 25 isolates; >128 was Replaced with 256
Description: as §7, §2, §3, §4, §8, §5

[4] = test system: Staphylococcus epidermidis (Coagulase-negative Staphylococcus) fluoroquinolone-susceptible; settings: 25 isolates; <0.0625 was Replaced with 0.03125
Description: as §7, §2, §3, §4, §8, §5

[5] = test system: Staphylococcus epidermidis (Coagulase-negative Staphylococcus) fluoroquinolone-resistant; settings: 25 isolates; <0.0625 was Replaced with 0.03125
Description: as §7, §2, §3, §4, §8, §5

[6] = test system: Staphylococcus aureus fluoroquinolone-susceptible; parameters: Mean MIC (Descriptive Statistics) / Minimum MIC (Descriptive Statistics) / Maximum MIC (Descriptive Statistics): unit: µg/mL; settings: 25 isolates
Description: as §7, §2, §3, §4, §8, §5

| Structure (SMILES) | Minimum MIC (Haemophilus influenzae) [µg/mL] | Maximum MIC (Haemophilus influenzae) [µg/mL] | Mean MIC (Haemophilus influenzae) [µg/mL] | Median MIC (Haemophilus influenzae) | Maximum MIC (Descriptive Statistics) [1] [µg/mL] | Mean MIC (Descriptive Statistics) [1] [µg/mL] | Median MIC (Descriptive Statistics / Mann-Whitney) [1] | Minimum MIC (Descriptive Statistics) [1] [µg/mL] | Minimum MIC [2] [µg/mL] | Maximum MIC [2] [µg/mL] | Mean MIC [2] [µg/mL] | Median MIC [2] [µg/mL] | Maximum MIC (Descriptive Statistics) (Streptococcus pneumoniae) [µg/mL] | Mean MIC (Descriptive Statistics) (Streptococcus pneumoniae) [µg/mL] | Median MIC (Descriptive Statistics / Mann-Whitney) (Streptococcus pneumoniae) | Minimum MIC (Descriptive Statistics) (Streptococcus pneumoniae) [µg/mL] | Maximum MIC (Descriptive Statistics) [3] | Mean MIC (Descriptive Statistics) [3] | Median MIC (Descriptive Statistics / Mann-Whitney) [3] | Minimum MIC (Descriptive Statistics) [3] | also measured |
| --- | --- | --- | --- | --- | --- | --- | --- | --- | --- | --- | --- | --- | --- | --- | --- | --- | --- | --- | --- | --- | --- |
| N=C(N)NCCCCC(=O)Nc1cc(C(F)(F)F)cc(NC(=O)c2cc(C(=O)Nc3cc(C(F)(F)F)cc(NC(=O)CCCCNC(=N)N)c3O[C@@H]3CCNC3)ncn2)c1O[C@@H]1CCNC1 [Olig 4] | 2.00 | 32.00 | 8.56 | 8.00 µg/mL | 32 | 5.84 | 4.00 | 1 | 0.50 | 128.00 | 21.42 | 4.00 | 128 | 6.08 | 1.00 | 0.5 | 1.0000 | 0.3200 | 0.2500 | 0.1250 | Maximum MIC (Descriptive Statistics) (Serratia marcescens): 32 µg/mL; Mean MIC (Descriptive Statistics) (Serratia marcescens): 12.4 µg/mL; Median MIC (Descriptive Statistics / Mann-Whitney) (Serratia marcescens): 8.00; Minimum MIC (Descriptive Statistics) (Serratia marcescens): 0.25 µg/mL; Maximum MIC (Descriptive Statistics) (Pseudomonas aeruginosa): 8 µg/mL; Mean MIC (Descriptive Statistics) (Pseudomonas aeruginosa): 3.54 µg/mL; Median MIC (Descriptive Statistics / Mann-Whitney) (Pseudomonas aeruginosa): 4.00; Minimum MIC (Descriptive Statistics) (Pseudomonas aeruginosa): 0.5 µg/mL; Maximum MIC (Descriptive Statistics) [4]: 0.2500; Mean MIC (Descriptive Statistics) [4]: 0.1388; Median MIC (Descriptive Statistics / Mann-Whitney) [4]: 0.125; Minimum MIC (Descriptive Statistics) [4]: 0.0313; Maximum MIC (Descriptive Statistics) [5]: 0.2500; Mean MIC (Descriptive Statistics) [5]: 0.1300; Median MIC (Descriptive Statistics / Mann-Whitney) [5]: 0.125; Minimum MIC (Descriptive Statistics) [5]: 0.0313; Maximum MIC (Descriptive Statistics) [6]: 0.5000; Mean MIC (Descriptive Statistics) [6]: 0.2850; Median MIC (Descriptive Statistics / Mann-Whitney) [6]: 0.2500; Minimum MIC (Descriptive Statistics) [6]: 0.1250 |
| N=C(N)NCCCCC(=O)Nc1cc(C(F)(F)F)cc(NC(=O)c2cnc(C(=O)Nc3cc(C(F)(F)F)cc(NC(=O)CCCCNC(=N)N)c3SCCN)cn2)c1SCCN [Olig 5] | 2.0 | 128.0 | 48.6 | 16.0 µg/mL and 16.00 µg/mL | 128 | 36.8 | 16.00 | 0.5 | 0.13 | 128.00 | 13.26 | 0.50 | 128 | 10.6 | 4.00 | 0.5 | 0.5000 | 0.2900 | 0.2500 | 0.1250 | Maximum MIC (Descriptive Statistics) (Serratia marcescens): 256 µg/mL; Mean MIC (Descriptive Statistics) (Serratia marcescens): 233 µg/mL; Median MIC (Descriptive Statistics / Mann-Whitney) (Serratia marcescens): 256.0; Minimum MIC (Descriptive Statistics) (Serratia marcescens): 8 µg/mL; Maximum MIC (Descriptive Statistics) (Pseudomonas aeruginosa): 256 µg/mL; Mean MIC (Descriptive Statistics) (Pseudomonas aeruginosa): 85.9 µg/mL; Median MIC (Descriptive Statistics / Mann-Whitney) (Pseudomonas aeruginosa): 64.0; Minimum MIC (Descriptive Statistics) (Pseudomonas aeruginosa): 4 µg/mL; Maximum MIC (Descriptive Statistics) [4]: 0.2500; Mean MIC (Descriptive Statistics) [4]: 0.1375; Median MIC (Descriptive Statistics / Mann-Whitney) [4]: 0.125; Minimum MIC (Descriptive Statistics) [4]: 0.0313; Maximum MIC (Descriptive Statistics) [5]: 0.5000; Mean MIC (Descriptive Statistics) [5]: 0.1475; Median MIC (Descriptive Statistics / Mann-Whitney) [5]: 0.125; Minimum MIC (Descriptive Statistics) [5]: 0.0313; Maximum MIC (Descriptive Statistics) [6]: 0.5000; Mean MIC (Descriptive Statistics) [6]: 0.2450; Median MIC (Descriptive Statistics / Mann-Whitney) [6]: 0.2500; Minimum MIC (Descriptive Statistics) [6]: 0.1250 |
